Measured values reported in paper PMC7932537, “Quantitative profiling of protease specificity” (PLoS Computational Biology, 2021).

Key:
MMP-9 = test: Substrate phage display with NGS: relative probability (RP) of P3-P1' tetramer clusters; format: biochemical, human; conditions: for MMP9 relative probability (RP): MMP9 tetramers from unique substrates, unrounded values; for corresponding MMP9 relative probability (RP): MMP2 tetramers from unique substrates, RP of same tetramer for MMP9
MMP-2 = test: as above; format: biochemical, human; conditions: for corresponding MMP2 relative probability (RP): MMP9 tetramers from unique substrates, RP of same tetramer for MMP2; for avg_RP: MMP2 - no binning; for MMP2 relative probability (RP): MMP2 tetramers from unique substrates, unrounded values; for relative probability (RP) of matching tetramer: P3-P1' tetramer matching the MS detected MMP2 cleavage sequence, RP_above_4.5
[1] = RP of the P3-P1' tetramer, MMP9 substrate phage display/NGS, tetramers of physiologic MEROPS substrates common to MMP2 and MMP9
[2] = RP of the P3-P1' tetramer, MMP2 substrate phage display/NGS, tetramers of physiologic MEROPS substrates common to MMP2 and MMP9
[3] = MMP9, RP of the P3-P1' tetramer contained in the hexamer substrate (substrate phage display, NGS)
[4] = RP of the P3-P1' tetramer cluster contained in the hexamer, 200 nM MMP-2, 2 h, 37°C, two rounds of selection
[5] = MMP9, RP of the P3-P1' tetramer matching the MS detected cleavage, RP above 4.7, substrate phage display with NGS
[6] = RP of matching tetramer, common MMP2-9 selectome, RP above KL threshold
[7] = RP of matching tetramer, common MMP2-9 selectome
[8] = RP according to MMP9, P3-P1' tetramer of unique physiologic MMP9 substrates from MEROPS
[9] = RP according to MMP2, P3-P1' tetramer of unique physiologic MMP2 substrates from MEROPS
[10] = MMP9, RP of matching P3-P1' tetramer, common set of MMP2-9 selectome
[11] = MMP2, RP of matching P3-P1' tetramer, common set of MMP2-9 selectome, RP above KL threshold
[12] = average relative probability of the tetramer, redundant tetramers averaged out
[13] = normalized RP of matching tetramer, unique part of MMP2 selectome

VYHQ
MMP9 relative probability (RP) (MMP-9): 0.1039 | corresponding MMP2 relative probability (RP) (MMP-2): 13.6887

PGNR
relative probability (RP) (acc.to MMP9) (MMP-9; [1]): 0.05 | relative probability (RP) (acc.to MMP2) (MMP-2; [2]): 0.12

PQPEGL
relative probability (RP) (MMP-9; [3]): 39.4116 | relative probability (RP) (MMP-2; [4]): 29.5031

PKGA
relative probability (RP) (acc.to MMP9) (MMP-9; [1]): 1.22 | relative probability (RP) (acc.to MMP2) (MMP-2; [2]): 0

PDGL
relative probability (RP) (MMP-9; [5]): 23.13 | relative probability (RP) (acc.to MMP9) (MMP-9; [6]): 23.13 | relative probability (RP) (acc.to MMP2) (MMP-2; [7]): 6.23

PPGS
relative probability (RP) (acc.to MMP9) (MMP-9; [1]): 0.2 | relative probability (RP) (acc.to MMP2) (MMP-2; [2]): 0.1

GPKG
relative probability (RP) (acc.to MMP9) (MMP-9; [1]): 2.81 | relative probability (RP) (acc.to MMP2) (MMP-2; [2]): 1.49

PRHR
relative probability (RP) (acc.to MMP9) (MMP-9; [1]): 0.35 | relative probability (RP) (acc.to MMP2) (MMP-2; [2]): 0.04

PRPL [P3-P1' tetramer cluster]
relative probability (RP) (MMP-9; tetramer projected onto MMP-9 cleavage sites determined by Prudova et al. (2010)): 46.79 | avg_RP (MMP-2; average relative probability of the P3-P1' tetramer, redundant tetramers have been averaged out): 34.3303

PIQW
corresponding MMP9 relative probability (RP) (MMP-9): 1.638 | Relative probability (RP) rank (MMP-9; [8]): 11221 | relative probability (RP) (MMP-9; [8]): 1.64 | relative probability (RP) (acc.to MMP9) (MMP-9; [1]): 1.64 | MMP2 relative probability (RP) (MMP-2): 8.258 | Relative probability (RP) rank (MMP-2; [9]): 5694 | relative probability (RP) (MMP-2; [9]): 8.26 | relative probability (RP) (acc.to MMP2) (MMP-2; [2]): 8.26

PQPSEL
relative probability (RP) (MMP-9; [3]): 41.3266 | relative probability (RP) (MMP-2; [4]): 31.5156

IRPKHF
relative probability (RP) (MMP-9; [3]): 30.1694 | relative probability (RP) (MMP-2; [4]): 19.1404

AKAQ
MMP9 relative probability (RP) (MMP-9): 0.8414 | corresponding MMP2 relative probability (RP) (MMP-2): 5.884

PGAY
relative probability (RP) (acc.to MMP9) (MMP-9; [1]): 33.81 | relative probability (RP) (acc.to MMP2) (MMP-2; [2]): 27.42

ARHYKS
relative probability (RP) (MMP-9; [3]): 23.6532 | relative probability (RP) (MMP-2; [4]): 10.2998

LAHA
corresponding MMP9 relative probability (RP) (MMP-9): 0.5961 | MMP2 relative probability (RP) (MMP-2): 10.8276 | Relative probability (RP) rank (MMP-2; [9]): 4607 | relative probability (RP) (MMP-2; [9]): 10.83 | relative probability (RP) (MMP-2; tetramer annotation of MMP-2 cleavage sites in physiologic substrates from MEROPS): 10.83

VRNI
relative probability (RP) (acc.to MMP9) (MMP-9; [10]): 38.1 | relative probability (RP) (MMP-9; [5]): 38.1 | relative probability (RP) (acc.to MMP9) (MMP-9; [6]): 38.1 | relative probability (RP) (acc.to MMP2) (MMP-2; [11]): 25.21 | relative probability (RP) of matching tetramer (MMP-2): 25.21 | relative probability (RP) (acc.to MMP2) (MMP-2; [7]): 25.21

MGSL
corresponding MMP9 relative probability (RP) (MMP-9): 3.398 | MMP2 relative probability (RP) (MMP-2): 28.8961 | Relative probability (RP) rank (MMP-2; [9]): 452 | relative probability (RP) (MMP-2; [9]): 28.9

PGPIGW
relative probability (RP) (MMP-9; [3]): 36.9425 | relative probability (RP) (MMP-2; [4]): 31.1565

IHSL
relative probability (RP) (acc.to MMP9) (MMP-9; [10]): 4.86 | relative probability (RP) (acc.to MMP2) (MMP-2; [11]): 6.87 | relative probability (RP) of matching tetramer (MMP-2): 6.87

GPALSY
relative probability (RP) (MMP-9; [3]): 25.6531 | relative probability (RP) (MMP-2; [4]): 14.6475

PEGL
relative probability (RP) (acc.to MMP9) (MMP-9; [1]): 39.41 | relative probability (RP) (acc.to MMP2) (MMP-2; [2]): 29.5

PYGL
relative probability (RP) (acc.to MMP9) (MMP-9; [1]): 49.41 | avg_RP (MMP-2; [12]): 32.9966 | relative probability (RP) (acc.to MMP2) (MMP-2; [2]): 33

LRGL
relative probability (RP) (acc.to MMP9) (MMP-9; [1]): 28.75 | relative probability (RP) (acc.to MMP2) (MMP-2; [2]): 20.33

IPLASL
relative probability (RP) (MMP-9; [3]): 34.6637 | relative probability (RP) (MMP-2; [4]): 31.1996

PTGL
relative probability (RP) (acc.to MMP9) (MMP-9; [1]): 39.89 | avg_RP (MMP-2; [12]): 33.1098 | relative probability (RP) (acc.to MMP2) (MMP-2; [2]): 33.11

SAPL
relative probability (RP) (acc.to MMP9) (MMP-9; RP of matching tetramer, unique part of MMP2 selectome): 2.49 | normalized RP - MMP9 (MMP-9; [13]): 0.04754 | relative probability (RP) of matching tetramer (MMP-2): 18.44 | relative probability (RP) (acc.to MMP2) (MMP-2; RP of matching tetramer, unique part of MMP2 selectome, RP above KL threshold): 18.44 | normalized RP - MMP2 (MMP-2; [13]): 0.5049

PSNMEG
relative probability (RP) (MMP-9; [3]): 45.3884 | relative probability (RP) (MMP-2; [4]): 32.3748

SDEL
relative probability (RP) (acc.to MMP9) (MMP-9; [1]): 0 | relative probability (RP) (acc.to MMP2) (MMP-2; [2]): 0

PSGL
relative probability (RP) (acc.to MMP9) (MMP-9; [1]): 47.39 | relative probability (RP) (acc.to MMP2) (MMP-2; [2]): 35.5

AKNL
relative probability (RP) (acc.to MMP9) (MMP-9; [10]): 32.82 | relative probability (RP) (MMP-9; [5]): 32.82 | relative probability (RP) (acc.to MMP9) (MMP-9; [6]): 32.82 | relative probability (RP) (acc.to MMP2) (MMP-2; [11]): 16.7 | relative probability (RP) of matching tetramer (MMP-2): 16.7 | relative probability (RP) (acc.to MMP2) (MMP-2; [7]): 16.7

TGLT
Relative probability (RP) rank (MMP-9; [8]): 41284 | relative probability (RP) (MMP-9; [8]): 0.21 | relative probability (RP) (acc.to MMP9) (MMP-9; [1]): 0.21 | relative probability (RP) (acc.to MMP2) (MMP-2; [2]): 0.24

DGPVSF
relative probability (RP) (MMP-9; [3]): 25.1636 | relative probability (RP) (MMP-2; [4]): 24.4524

PYEWHS
relative probability (RP) (MMP-9; [3]): 22.8534 | relative probability (RP) (MMP-2; [4]): 1.984
